# Measured values as given in patent US12692261B2, “Substituted heterocyclic compounds and therapeutic uses thereof” (Bayer Aktiengesellschaft, priority 2020, dated 2026).
# Where two headings read alike, the source gives them in different places.
# Experiments:
# [1] = target: T1, full-length human CSNK1A1 (Homo sapiens, UniProt P48729); experiment: CSNK1A1 High ATP Assay (ADP-Glo, 1 mM ATP); type: biochemical; settings: Table 3, read-out: CSNK1A1 high ATP assay IC50 [mol/l] (median);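 note: 30 min kinase reaction at 22 °C with 100 µM peptide substrate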
# T1 construct: N-terminal Glutathion-S-Transferase (GST) and full-length human CSNK1A1; purchased Life Technologies PV4174; host or cells: baculovirus infected insect cells
# How it was run: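 GST-tagged full-length human CSNK1A1 from baculovirus-infected insect cells (typically about 0.4 ng/μL), pre-incubated with compound 15 min at 22 °C. Reaction with biotinylated peptide biotin-Ahx-KRRRAL-pS-VASLPGL at 1 mM ATP. ADP formed read by ADP-Glo luminescence.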
# [2] = target: T2, wild-type Epidermal Growth Factor Receptor (EGFR) (Homo sapiens, UniProt P00533); experiment: WT-EGFR Kinase Assay (TR-FRET, 2 mM ATP); type: biochemical
# T2 construct: a fragment of human EGFR (amino acids R669 to A1210); made in house; host or cells: Sf9 insect cells
# How it was run: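 GST-fused human EGFR fragment (R669-A1210) from Sf9 cells, typically 7.6 pg/μL, pre-incubated with compound 15 min at 22° C in Hepes pH 7.0 buffer with MgCl2, DTT and vanadate; biotinylated peptide substrate. After EDTA stop, phosphopeptide detected by TR-FRET (anti-phosphotyrosine Tb-cryptate/streptavidin-XL665), 665/620 nm emission ratio.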
# [3] = EGFR Wildtyp 2 mM ATP IC50 [mol/l] (median), Table 4
# [4] = read-out: EGFR Wildtyp 2 mM ATP IC50 [mol/l] (median), Table 4
# T1 sequence (P48729 whole entry): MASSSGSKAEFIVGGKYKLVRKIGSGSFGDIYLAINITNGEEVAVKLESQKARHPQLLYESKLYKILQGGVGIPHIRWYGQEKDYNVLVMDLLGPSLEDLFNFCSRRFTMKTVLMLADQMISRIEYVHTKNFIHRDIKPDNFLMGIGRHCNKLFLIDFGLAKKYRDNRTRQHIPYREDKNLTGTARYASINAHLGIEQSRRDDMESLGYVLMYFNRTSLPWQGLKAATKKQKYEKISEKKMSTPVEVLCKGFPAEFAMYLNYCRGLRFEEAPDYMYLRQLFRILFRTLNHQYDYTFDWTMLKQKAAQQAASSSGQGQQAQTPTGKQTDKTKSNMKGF
# T2 sequence (P00533 669-1210): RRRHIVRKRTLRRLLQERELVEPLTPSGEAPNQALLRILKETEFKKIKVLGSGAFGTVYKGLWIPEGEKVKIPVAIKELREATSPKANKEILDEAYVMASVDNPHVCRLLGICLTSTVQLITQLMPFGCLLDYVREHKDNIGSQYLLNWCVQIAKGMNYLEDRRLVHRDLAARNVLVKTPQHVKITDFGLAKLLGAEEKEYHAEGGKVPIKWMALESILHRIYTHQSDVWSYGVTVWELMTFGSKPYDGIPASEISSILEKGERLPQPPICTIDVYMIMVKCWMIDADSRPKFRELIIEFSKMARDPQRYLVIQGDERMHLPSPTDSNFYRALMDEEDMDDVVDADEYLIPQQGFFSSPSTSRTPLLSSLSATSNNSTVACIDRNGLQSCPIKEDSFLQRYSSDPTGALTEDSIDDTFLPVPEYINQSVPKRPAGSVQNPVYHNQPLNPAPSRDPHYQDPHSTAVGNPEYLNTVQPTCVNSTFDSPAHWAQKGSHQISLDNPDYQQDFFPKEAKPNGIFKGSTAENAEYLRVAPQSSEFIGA
SMILES,IC50 [1] [nM],"IC50 [2, 3] [µM]","IC50 [2, 4] [µM]"
"O=C(Nc1cc(-c2[nH]c3ncc(F)nc3c2-c2ccccn2)ccn1)C(CC(F)F)c1ccc(F)cc1 (single isomer, unassigned) [Example 63, (2R or S)-4,4-difluoro-2-(4-fluorophenyl)-N-{4-[2-fluoro-7-(pyridin-2-yl)-5H-pyrrolo[2,3-b]pyrazin-6-yl]pyridin-2-yl}butanamide]",1.48,> 20,–
"O=C(Nc1cc(-c2[nH]c3ncc(F)nc3c2-c2ccccn2)ccn1)C(CC(F)F)c1ccc(F)cc1 (single isomer, unassigned) [Example 64, (2R or S)-4,4-difluoro-2-(4-fluorophenyl)-N-{4-[2-fluoro-7-(pyridin-2-yl)-5H-pyrrolo[2,3-b]pyrazin-6-yl]pyridin-2-yl}butanamide]",23,–,> 20
"O=C(Nc1cc(-c2[nH]c3ccnnc3c2-c2ccccn2)ccn1)C(CC(F)F)c1ccc(F)cc1 (single isomer, unassigned) [Example 66, (2R or 2S)-4,4-difluoro-2-(4-fluorophenyl)-N-{4-[7-(pyridin-2-yl)-5H-pyrrolo[3,2-c]pyridazin-6-yl]pyridin-2-yl}butanamide]",2.43,> 20,–
"O=C(Nc1cc(-c2[nH]c3ccnnc3c2-c2ccccn2)ccn1)C(CC(F)F)c1ccc(F)cc1 (single isomer, unassigned) [Example 67, (2R or S)-4,4-difluoro-2-(4-fluorophenyl)-N-{4-[7-(pyridin-2-yl)-5H-pyrrolo[3,2-c]pyridazin-6-yl]pyridin-2-yl}butanamide]",22,–,> 20
"O=C(Nc1cc(-c2[nH]c3c(O[C@H]4CCOC4)ncnc3c2-c2ccccn2)ccn1)C(CC(F)F)c1ccc(F)cc1 (single isomer, unassigned) [Example 73, (2R or S)-4,4-difluoro-2-(4-fluorophenyl)-N-{4-[4-{[(3S)-oxolan-3-yl]oxy}-7-(pyridin-2-yl)-5H-pyrrolo[3,2-d]pyrimidin-6-yl]pyridin-2-yl}butanamide]",4.16,> 20,–
"O=C(Nc1cc(-c2[nH]c3c(O[C@H]4CCOC4)ncnc3c2-c2ccccn2)ccn1)C(CC(F)F)c1ccc(F)cc1 (single isomer, unassigned) [Example 74, (2R or S)-4,4-difluoro-2-(4-fluorophenyl)-N-{4-[4-{[(3S)-oxolan-3-yl]oxy}-7-(pyridin-2-yl)-5H-pyrrolo[3,2-d]pyrimidin-6-yl]pyridin-2-yl}butanamide]",35.8,–,> 20
"O=C(Nc1cc(-c2[nH]c3c(OCC(F)F)ncnc3c2-c2ccccn2)ccn1)C(CC(F)F)c1ccc(F)cc1 (single isomer, unassigned) [Example 79, (2R or S)—N-{4-[4-(2,2-difluoroethoxy)-7-(pyridin-2-yl)-5H-pyrrolo[3,2-d]pyrimidin-6-yl]pyridin-2-yl}-4,4-difluoro-2-(4-fluorophenyl)butanamide]",3.1,> 20,–
"O=C(Nc1cc(-c2[nH]c3c(OCC(F)F)ncnc3c2-c2ccccn2)ccn1)C(CC(F)F)c1ccc(F)cc1 (single isomer, unassigned) [Example 80, (2R or S)—N-{4-[4-(2,2-difluoroethoxy)-7-(pyridin-2-yl)-5H-pyrrolo[3,2-d]pyrimidin-6-yl]pyridin-2-yl}-4,4-difluoro-2-(4-fluorophenyl)butanamide]",16.9,–,> 20
"COc1cnc2c(-c3ccccn3)c(-c3ccnc(NC(=O)C(CC(F)F)c4ccc(F)cc4)c3)[nH]c2c1 (single isomer, unassigned) [Example 82, 4,4-difluoro-2-(4-fluorophenyl)-N-{4-[6-methoxy-3-(pyridin-2-yl)-1H-pyrrolo[3,2-b]pyridin-2-yl]pyridin-2-yl}butanamide]",2.68,> 20,–
"COc1cnc2c(-c3ccccn3)c(-c3ccnc(NC(=O)C(CC(F)F)c4ccc(F)cc4)c3)[nH]c2c1 (single isomer, unassigned) [Example 83, 4,4-difluoro-2-(4-fluorophenyl)-N-{4-[6-methoxy-3-(pyridin-2-yl)-1H-pyrrolo[3,2-b]pyridin-2-yl]pyridin-2-yl}butanamide]",9.86,–,> 20
"O=C(Nc1cc(-c2[nH]c3cc(Cl)cnc3c2-c2ccccn2)ccn1)C(CC(F)F)c1ccc(F)cc1 (single isomer, unassigned) [Example 88, (+)—N-{4-[6-chloro-3-(pyridin-2-yl)-1H-pyrrolo[3,2-b]pyridin-2-yl]pyridin-2-yl}-4,4-difluoro-2-(4-fluorophenyl)butanamide]",4.72,> 20,–
"O=C(Nc1cc(-c2[nH]c3cc(Cl)cnc3c2-c2ccccn2)ccn1)C(CC(F)F)c1ccc(F)cc1 (single isomer, unassigned) [Example 89, (−)—N-{4-[6-chloro-3-(pyridin-2-yl)-1H-pyrrolo[3,2-b]pyridin-2-yl]pyridin-2-yl}-4,4-difluoro-2-(4-fluorophenyl)butanamide]",89,–,> 20
"Cc1cnc2c(-c3ccccn3)c(-c3ccnc(NC(=O)C(CC(F)F)c4ccc(F)cc4)c3)[nH]c2n1 (single isomer, unassigned; (+)) [Example 86, (+)-4,4-difluoro-2-(4-fluorophenyl)-N-{4-[3-methyl-7-(pyridin-2-yl)-5H-pyrrolo[2,3-b]pyrazin-6-yl]pyridin-2-yl}butanamide]",2.89,> 20,–
"COc1cnc2c(-c3ccccn3)c(-c3ccnc(NC(=O)C(CC(F)F)c4ccc(F)cc4)c3)[nH]c2c1 (centres unmarked) [Example 81, 4,4-difluoro-2-(4-fluorophenyl)-N-{4-[6-methoxy-3-(pyridin-2-yl)-1H-pyrrolo[3,2-b]pyridin-2-yl]pyridin-2-yl}butanamide]",4.02,> 20,–
"Cc1ccnc2c(-c3ccccn3)c(-c3ccnc(NC(=O)C(CC(F)F)c4ccc(F)cc4)c3)[nH]c12 (centres unmarked) [Example 84, 4,4-difluoro-2-(4-fluorophenyl)-N-{4-[7-methyl-3-(pyridin-2-yl)-1H-pyrrolo[3,2-b]pyridin-2-yl]pyridin-2-yl}butanamide]",4.77,> 20,–
"Cc1cnc2c(-c3ccccn3)c(-c3ccnc(NC(=O)C(CC(F)F)c4ccc(F)cc4)c3)[nH]c2n1 (centres unmarked) [Example 85, 4,4-difluoro-2-(4-fluorophenyl)-N-{4-[3-methyl-7-(pyridin-2-yl)-5H-pyrrolo[2,3-b]pyrazin-6-yl]pyridin-2-yl}butanamide]",4.21,> 20,–
